Where a chain is given by its changes, count along the chain named. Like-named read-outs stand apart in the source and are kept apart here.

Consider 19 compounds from patent US20090105349A1, “ANDROGEN MODULATORS” (WARNER-LAMBERT COMPANY LLC, priority 2004, published 2009).

Assay [1] concerns the target T1, androgen receptor in MDA-MB453-MMTV clone 54-19 cells (Homo sapiens, UniProt P10275).
T1 sequence (P10275 1-920 Q868H): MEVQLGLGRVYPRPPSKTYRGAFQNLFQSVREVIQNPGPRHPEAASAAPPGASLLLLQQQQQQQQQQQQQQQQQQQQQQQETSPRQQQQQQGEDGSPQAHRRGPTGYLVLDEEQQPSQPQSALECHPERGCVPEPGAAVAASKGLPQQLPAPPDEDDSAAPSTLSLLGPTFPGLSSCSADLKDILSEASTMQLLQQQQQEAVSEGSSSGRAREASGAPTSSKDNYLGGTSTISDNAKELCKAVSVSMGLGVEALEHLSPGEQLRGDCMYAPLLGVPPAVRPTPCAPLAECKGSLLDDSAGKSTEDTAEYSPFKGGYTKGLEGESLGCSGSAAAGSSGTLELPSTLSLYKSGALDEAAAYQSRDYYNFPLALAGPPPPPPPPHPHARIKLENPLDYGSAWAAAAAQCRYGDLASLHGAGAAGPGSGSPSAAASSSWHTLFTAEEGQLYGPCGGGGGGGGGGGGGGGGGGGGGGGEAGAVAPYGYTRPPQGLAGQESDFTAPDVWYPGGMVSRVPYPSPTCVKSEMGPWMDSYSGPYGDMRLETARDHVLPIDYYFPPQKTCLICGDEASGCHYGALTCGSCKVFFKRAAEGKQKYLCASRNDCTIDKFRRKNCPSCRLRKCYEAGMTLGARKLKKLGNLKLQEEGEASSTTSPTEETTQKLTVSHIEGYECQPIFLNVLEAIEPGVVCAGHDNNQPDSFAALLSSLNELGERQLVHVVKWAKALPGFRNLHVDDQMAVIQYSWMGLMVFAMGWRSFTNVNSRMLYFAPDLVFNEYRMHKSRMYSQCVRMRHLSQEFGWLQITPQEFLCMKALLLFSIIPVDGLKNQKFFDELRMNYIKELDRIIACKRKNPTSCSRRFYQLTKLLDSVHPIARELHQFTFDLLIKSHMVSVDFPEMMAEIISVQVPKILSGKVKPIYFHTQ
The assay can be described thus: AR antagonist cell assay (MMTV-luciferase reporter). The class given is cell-based. How it is done:
The compounds ability to antagonize the effects of androgen on the androgen receptor were determined in a whole cell assay as described immediately below.
This cell line is a stable transfected cell line with MDA-MB453 cell background (a human breast tumor cell line expressing androgen receptor). A MMTV minimal promoter containing ARE was first cloned in front of a firefly luciferase reporter gene. Then the cascade was cloned into transfection vector pUV120puro. […] Puromycin resistant stable cell line was selected.
Plating medium: DMEM (phenol red free), 10% charcoal treated HyClone serum, 1% L-glutamine
Assay medium: DMEM (phenol red free), 1% charcoal treated HyClone serum, 1% L-glutamine, and 1% penicillin/streptomycin
Assay procedure: • 1. Cells are maintained in culture medium, splitting cells when they reach 80-90% confluence • 2. To test compounds, 10,000 cells/well are plated to opaque 96 cell culture plate in 100 ul/well plating medium, culture for overnight at 37° C. in cell culture incubator • 3. […] Add 10 ul/well freshly prepared DHT (final concentration at […]) to each well, incubate at 37° C. for 17 hr (overnight) • 5.
The results are reported as the mean of multiple tests as described below (the numbers of tests are indicated in the footnote). N.D. denotes that the compound was not tested.

Assay [2] concerns male C3H/HeN mice (telogen to anagen conversion). The class given is in vivo. The source says:
While this model is a significant improvement over the telogen conversion assay as a model for human baldness, it suffers from a number of practical disadvantages. The macaques are expensive, relatively rare, labor intensive to maintain, and require long wash out periods between testing. […] Thus, the model relates to a modification of the existing telogen conversion assay. Male C3H/HeN mice approximately 7 weeks old are utilized. These animals are also uniformly in telogen, like their female counterparts. However, once shaven, the androgens inherently present in these male mice inhibit the conversion of the hair follicles to the anagen phase. An anti-androgen will block this androgenic effect and the follicles will convert to anagen, like their female counterparts.
The compounds shown below in Table IV were submitted for further testing utilizing the modified telogen conversion assay, described above. The testing was carried out in the following manner.
Male C3H/HeN mice, 6 to 7 weeks old (Charles River Laboratories, Raleigh, N.C.) were used for the study. Fur was clipped from the dorsal region of the mice prior to initiation of the study. Only mice with pink skin, a visual indication of the telogen phase, were selected for inclusion in the study.
A second group of animals received only the vehicle to serve as a control. Treatments were applied twice daily for 4 weeks.
The hair growth response was quantified by recording, for each animal, the day on which signs of hair growth first appeared over the treated area. The first sign of anagen was the darkening of skin color as melanocytes in the follicles started to synthesize melanin in preparation for the production of pigmented hairs. […] The day on which anagen was initiated in 50% of the test animals for both the treatment group and the vehicle group is reported below in Table IV.

For assay [3], the target named is T2, hAR (human androgen receptor) (Homo sapiens, UniProt P10275).
T2 construct: made in house; host or cells: baculovirus/Sf9 insect cells (crude extract)
T2 sequence (P10275 1-920): T1 sequence (P10275 1-920 Q868H) with H868Q
The assay can be described thus: Competitive hAR binding assay with 3H-DHT tracer.

Where [4] appears, read: MDA-MB453-MMTV clone 54-19, inhibition of DHT induced luciferase, 17 hr; mean of multiple tests; read-out: AR Cell IC50.
[5] abbreviates: baculovirus/Sf9 hAR extract, 1 nM 3H-DHT, one hour at 4° C, mean of multiple tests, read-out: AR Binding IC50.
Setting [6] is: read-out: AR Cell IC50; MDA-MB453-MMTV clone 54-19, inhibition of DHT induced luciferase, 17 hr; mean of multiple tests.

In the case of `N#Cc1ccc(Oc2ccccc2F)c(Cl)c1` [Example 27, 3-Chloro-4-(2-fluoro-phenoxy)-benzonitrile], the 50% inhibitory concentration (IC50) in assay [1] (setting [4]) was 0.046 µM. For the same compound, in assay [2] (1 % w/v, Vehicle #2, topical twice daily for 4 weeks), the “Anagen-Trx (day on which anagen was initiated in 50% of the test animals)” value is more than 35 days.
Regarding `COc1cc(F)ccc1Oc1ccc(C#N)cc1Cl` [Example 29, 3-Chloro-4-(4-fluoro-2-methoxy-phenoxy)-benzonitrile], the half-inhibitory concentration (IC50) in assay [3] (setting [5]) worked out at 0.135 µM; in assay [1] (setting [6]), 0.067 µM. For the same compound, the “Anagen-Trx (day on which anagen was initiated in 50% of the test animals)” value in assay [2] (mouse, in vivo) came to 25 days.
As for `COc1cccc(Oc2ccc(C#N)c(C(F)(F)F)c2)c1OC` [Example 91, 4-(2,3-Dimethoxy-phenoxy)-2-trifluoromethyl-benzonitrile], the IC50 in assay [3] (setting [5]) amounted to 0.272 µM; in assay [1] (setting [6]), 0.028 µM. Besides, in assay [2] (mouse, in vivo), the “Anagen-Trx (day on which anagen was initiated in 50% of the test animals)” value worked out at 20 days.
Consider `N#Cc1ccc(Oc2ccc(C#N)c(C(F)(F)F)c2)cc1C#N` [Example 100, 4-(4-Cyano-3-trifluoromethyl-phenoxy)-phthalonitrile], for which the values for the IC50 in assay [3] (setting [5]) and in assay [1] (setting [4]) were 0.173 µM and 0.822 µM, respectively.
With `N#Cc1ccc(Oc2ccccc2C2CCCC2)cc1C(F)(F)F` [Example 104, 4-(2-Cyclopentyl-phenoxy)-2-trifluoromethyl-benzonitrile], the IC50 is 0.228 µM in assay [3] (setting [5]) and 0.592 µM in assay [1] (setting [4]).
With `C=CCc1ccccc1Oc1ccc(C#N)c(C(F)(F)F)c1` [Example 105, 4-(2-Allyl-phenoxy)-2-trifluoromethyl-benzonitrile], the IC50 was 0.082 µM in assay [3] and more than 1 µM in assay [1] (setting [4]).
Take `CCN(CC)C(=O)c1ccccc1Oc1ccc(C#N)c(C(F)(F)F)c1` [Example 106, 2-(4-Cyano-3-trifluoromethyl-phenoxy)-N,N-diethyl-benzamide]: the values for the IC50 in assay [3] (setting [5]) and in assay [1] (setting [4]) were 0.175 µM and more than 1 µM, respectively.
On to `N#Cc1ccc(Oc2ccccc2C(F)(F)F)cc1C(F)(F)F` [Example 108, 2-Trifluoromethyl-4-(2-trifluoromethyl-phenoxy)-benzonitrile], for which the IC50 in assay [3] was 0.057 µM; in assay [1] (setting [4]), more than 1 µM.
As for `CC(C)Oc1ccccc1Oc1ccc(C#N)c(C(F)(F)F)c1` [Example 110, 4-(2-Isopropoxy-phenoxy)-2-trifluoromethyl-benzonitrile], the IC50 in assay [3] (setting [5]) was determined as 0.218 µM; in assay [1] (setting [4]), 0.206 µM.
`N#Cc1ccc(Oc2ccc(F)cc2F)cc1C(F)(F)F` [Example 115, 4-(2,4-Difluoro-phenoxy)-2-trifluoromethyl-benzonitrile]: the 50% inhibitory concentration (IC50) was 0.128 µM in assay [3] and 0.056 µM in assay [1] (setting [6]).
Regarding `COc1c(O)cccc1Oc1ccc(C#N)c(C(F)(F)F)c1` [Example 116, 4-(3-Hydroxy-2-methoxy-phenoxy)-2-trifluoromethyl-benzonitrile], the results for the 50% inhibitory concentration (IC50) in assay [3] and in assay [1] (setting [6]) were 0.03 µM and 0.003 µM, respectively.
In the case of `COc1cc(Oc2ccccc2C)ccc1C#N` [Example 117, 2-Methoxy-4-o-tolyloxy-benzonitrile], the half-inhibitory concentration (IC50) in assay [3] (setting [5]) came to 0.053 µM; in assay [1] (setting [4]), 0.026 µM.
`Cc1ccc(F)c(Oc2ccc(C#N)c(C(F)(F)F)c2)c1F` [Example 118, 4-(2,6-Difluoro-3-methyl-phenoxy)-2-trifluoromethyl-benzonitrile]: the 50% inhibitory concentration (IC50) in assay [3] was found to be 0.076 µM; in assay [1] (setting [4]), 0.249 µM.
In the case of `CC(O)c1cc(F)ccc1Oc1ccc(C#N)c(C(F)(F)F)c1` (stereo not shown) [Example 119, 4-[4-Fluoro-2-(1-hydroxy-ethyl)-phenoxy]-2-trifluoromethyl-benzonitrile], the IC50 in assay [3] (setting [5]) came to 0.279 µM; in assay [1] (setting [4]), 0.458 µM.
For `CC(=O)c1cc(F)ccc1Oc1ccc(C#N)c(C(F)(F)F)c1` [Example 120, 4-(2-Acetyl-4-fluoro-phenoxy)-2-trifluoromethyl-benzonitrile] the same measures were 0.222 µM and 0.367 µM.
In the case of `N#Cc1ccc(Oc2c(F)cccc2F)cc1C(F)(F)F` [Example 121, 4-(2,6-Difluoro-phenoxy)-2-trifluoromethyl-benzonitrile], the IC50 in assay [3] was 0.063 µM; in assay [1] (setting [6]), 0.017 µM.
With `N#CCOc1ccccc1Oc1ccc(C#N)c(C(F)(F)F)c1` [Example 123, 4-(2-cyanomethoxy-phenoxy)-2-trifluoromethyl-benzonitrile], the concentration for half-maximal inhibition (IC50) in assay [3] (setting [5]) came out at 0.141 µM; in assay [1] (setting [6]), 0.054 µM.
As to `N#Cc1ccc(Oc2c(F)cccc2F)c(Cl)c1` [Example 124, 3-Chloro-4-(2,6-difluoro-phenoxy)-benzonitrile], the values for the IC50 in assay [3] and in assay [1] (setting [6]) were 0.045 µM and 0.06 µM, respectively.
As to `COc1cc(C#N)ccc1Oc1ccccc1C` [Example 125, 3-Methoxy-4-o-tolyloxy-benzonitrile], the IC50 in assay [3] (setting [5]) turned out to be 0.433 µM; in assay [1] (setting [4]), 0.05 µM.
